Assay results as given in patent US9949970B2, “Synthesis of new benzothiazole derivatives as potential anti-tubercular agents” (priority 2010, dated 2018).

These molecules were tested on M. tuberculosis isolates and drug resistance strains.
Format: cell-based, Mycobacterium tuberculosis

Molecule	In vitro activity (result in words)
N2-(2-{[(E)-3-(4-chlorophenyl)-2-propenoyl]amino}-1,3-benzothiazol-6-yl)-5-nitro-2-furamide [Compound 6w]	good in vitro activity
O=C(NNc1nc2ccc(OC(F)(F)F)cc2s1)c1ccc([N+](=O)[O-])o1 [Compound 4e, N′2-(6-trifluoromethoxy-1,3-benzothiazol-2-yl)-5-nitro-2-furanecarbohydrazide]	good in vitro activity
O=C(Nc1nc2ccc(NC(=O)c3ccc([N+](=O)[O-])o3)cc2s1)c1ccc(F)cc1 [Compound 6f, N2-{2-[(4-fluorobenzoyl)amino]-1,3-benzothiazol-6-yl}-5-nitrofuramide]	good in vitro activity
O=C(Nc1nc2ccc(NC(=O)c3ccc([N+](=O)[O-])o3)cc2s1)c1cnccn1 [Compound 6p, N2-(6-{[(5-nitro-2-furyl)carbonyl]amino}-1,3-benzothiazol-2-yl)-2-pyrazinecarboxamide]	good in vitro activity
O=C(Nc1ccc2nc(NC(=O)c3ccc(F)cc3F)sc2c1)c1ccc([N+](=O)[O-])o1 [Compound 6i, N2-{2-[(2,4-difluorobenzoyl)amino]-1,3-benzothiazol-6-yl}-5-nitrofuramide]	good in vitro activity
O=C(Nc1nc2ccc(NC(=O)c3ccc([N+](=O)[O-])o3)cc2s1)c1ccc(Cl)cc1 [Compound 6g, N2-{2-[(4-chlorobenzoyl)amino]-1,3-benzothiazol-6-yl}-5-nitrofuramide]	good in vitro activity
O=C(Nc1ccc2nc(NC(=O)c3ccc([N+](=O)[O-])o3)sc2c1)c1ccc([N+](=O)[O-])o1 [Compound 8a, N2-(2-{[(5-nitro-2-furyl)carbonyl]amino}-1,3-benzothiazol-6-yl}-5-nitro-2-furamide]	good in vitro activity
O=[N+]([O-])c1ccc(C=NNc2nc3ccc(OC(F)(F)F)cc3s2)s1 [Compound 3j, 5-nitro-2-thiophenecarbaldehyde 2-(6-trifluoromethoxy-1,3-benzothiazole-2-yl)hydrazone]	good in vitro activity
